Laboratory results from BindingDB's records for doi:10.1016/j.bmcl.2004.04.065 (Eli Lilly, 2004).

Biological target: TGF-beta receptor type-1
Assay: Inhibitory activity against TGF-beta type I receptor

Q: Which IC50 does the source give for `CCSc1ccc2c(-c3c(-c4ccccn4)nn4c3CCC4)ccnc2c1` [7-Ethylsulfanyl-4-(2-pyridin-2-yl-5,6-dihydro-4H-pyrrolo[1,2-b]pyrazol-3-yl)-quinoline] here?
A: 0.11 µM

Q: `c1ccc(-c2nn3c(c2-c2ccnc4ccccc24)CCC3)nc1` [4-(2-(pyridin-2-yl)-5,6-dihydro-4H-pyrrolo[1,2-b]pyrazol-3-yl)quinoline] was tested. Which IC50 did it give?
A: 0.104 µM

Q: Which IC50 does the source give for `CCS(=O)(=O)c1ccc2c(-c3c(-c4ccccn4)nn4c3CCC4)ccnc2c1` [7-Ethanesulfonyl-4-(2-pyridin-2-yl-5,6-dihydro-4H-pyrrolo[1,2-b]pyrazol-3-yl)-quinoline] here?
A: 9.29 µM

Q: How did the IC50 turn out when `CCc1cccc(-c2nn3c(c2-c2ccnc4ccccc24)CCC3)n1` [4-[2-(6-Ethyl-pyridin-2-yl)-5,6-dihydro-4H-pyrrolo[1,2-b]pyrazol-3-yl]-quinoline] was run?
A: 0.071 µM

Q: `Fc1ccc(-c2nn3c(c2-c2ccnc4ccccc24)CCC3)nc1` [4-[2-(5-Fluoro-pyridin-2-yl)-5,6-dihydro-4H-pyrrolo[1,2-b]pyrazol-3-yl]-quinoline] was tested. Which IC50 did it give?
A: 0.151 µM

Q: Which IC50 does the source give for `Cc1cccc(-c2nn3c(c2-c2ccnc4cc(Cl)ccc24)CCC3)n1` [7-chloro-4-(2-(6-methylpyridin-2-yl)-5,6-dihydro-4H-pyrrolo[1,2-b]pyrazol-3-yl)quinoline] here?
A: 0.048 µM
